# From patent US20110136898A1, “TREATMENT OF RETINAL DEGENERATION” (UNIVERSITY COLLEGE CORK, NATIONAL UNIVERSITY OF IRELAND, …, priority 2008, published 2011)
# “Also recorded” adds a separate entry of the source.
# Legend:
# [1] = system: photoreceptor cells; experiment: Retinal explant culture, SNP induced apoptosis detected by TUNEL; type: cell-based, C57BL/6 mice; conditions: for Protection of photoreceptor cells from SNP induced apoptosis: retinal explants, TUNEL; for Protection of photoreceptor cells from SNP induced apoptosis / Protection of photoreceptor cells from SNP induced apoptosis at 25 μM: 300 μM SNP 24 h, 1 hour pre-treatment
# [2] = Lipophilicity of BP derivatives; type: physicochemical; conditions: FIG. 4
# Procedure: (§1) FIG. 4: Is a histogram of % protection afforded by a 25 μM concentration of each BP derivative BP1 to BP6 in photoreceptor cells as a function of the lipophilicity of each derivative. (P is a logarithmic value that indicates the lipophilicity of a compound).
# [3] = system: photoreceptor cells; experiment: SNP challenge in photoreceptor cells, protection by BP derivatives; type: cell-based
# Procedure: FIG. 2: Is a histogram of results showing the effectiveness of a 25 μM concentration of each of the BP derivatives BP-1 to BP6 against increasing concentrations of SNP in photoreceptor cells. Error bars are +/−standard deviation-SD.
# as §1
# [4] = system: photoreceptor cells; experiment: Light damage model in vivo, TUNEL; set-up: species or system albino balb/c mice; conditions: for Protection from light induced retinal damage (apoptosis of photoreceptors): 200 mg/kg IP, 1 hour pre-treatment, single injection
# Procedure: FIG. 7: In this figure the study was extended from ex vivo cultures to the light damage model in vivo. In this acute model of retinal disease albino balb/c mice are exposed to excessive white light causing the photoreceptor cells to die by apoptosis. […] The protection extends to 48 hours with only a single injection of BP3.
# FIG. 8 is a histogram of the results from FIG. 7. TUNEL positive cells in three independent retinae were counted. Counts were performed on the central 40× field of the outer nuclear layer (ONL) and graphed with error bars (+/−standard deviation-SD).
# (§2) Apoptosis detection by Terminal deoxynucleotidyl transferase-mediated biotinylated UTP nick end labeling (TUNEL): Retinal explants were fixed in 10% neutral buffered formalin overnight at 4° C., followed by cryoprotection in 25% sucrose overnight at 4° C. Frozen sections (7 μm) were incubated with terminal deoxynucleotidyl transferase (MSC, Dublin, Republic of Ireland) and fluorescein-12-dUTP (Roche, Lewes, UK) according to manufacturers' instructions at 37° C. for 1 h. Sections were mounted and viewed under a fluorescence microscope (Leica DM LB2; Leica, Nussloch, Germany) using an FITC filter.
# Light damage model: Balb/c mice were dark adapted for 18 h prior to exposure to constant light. Mice were injected intraperitoneally with the Active 1 hour prior to light damage. Immediately prior to light exposure their pupils were dilated with 0.5% cyclopentolate under red light. Retinal light damage was induced by exposure to 2 h of cool white fluorescent light at an illumination of 5000 lux. Following exposure to constant light, animals were placed in the dark for 24 h then killed immediately by cervical dislocation. TUNEL staining was performed as described above.
# [5] = system: photoreceptor cells; experiment: rd10 chronic model of retinal degeneration; type: in vivo, rd10 mouse
# Excerpt: In this model photoreceptor cells degenerate more slowly than the light model, over weeks rather than hours to days. Cell death is evident from postnatal day 18 (P18) and by P25 a significant loss of photoreceptor cell layers is observed. […] In this model, the central and peripheral retina degenerate at different rates. The loss of photoreceptors is greater in the central retina than the periphery between P18 and P25.
# FIG. 10: The ONL comprises two types of cell; rod photoreceptors and cone photoreceptors. […] Rhodopsin is a protein specifically found in the outer segments (OS) of rod photoreceptors. […] Peanut agglutinin (PNA) is a lectin which binds to carbohydrates found in the outer membrane of cone photoreceptors but which are absent from rods.
# Frozen sections (7 μm) were blocked with 0.1% bovine serum albumin (BSA) in 0.1% tween/PBS for 1 hour at room temperature. Sections were incubated with anti-rhodopsin antibody (LAB VISION Corporation, Fremont, Calif., USA) overnight at 4° C. Sections were washed and incubated with FITC conjugated secondary mouse antibody (Dako, Glostrup, Denmark) for 1 hour at room temperature. Following further washes, sections were mounted and viewed under a fluorescence microscope (Leica DM LB2; Leica, Nussloch, Germany) using a FITC filter.
# Frozen sections (7 μm) were blocked with 0.1% bovine serum albumin (BSA) in 0.1% tween/PBS for 30 minutes at room temperature. Sections were incubated with rhodamine conjugated PNA (Invitrogen, Dun Laoghaire, Ireland) for 20 minutes at room temperature as per manufacturers' instructions. Sections were mounted and viewed under a fluorescence microscope (Leica DM LB2; Leica, Nussloch, Germany) using a TRITC filter.
# (§3) Frozen sections (7 μm) were stained in Hematoxylin (Sigma, Dublin, Ireland) for 10 seconds followed by a 15 minute water wash and 2-3 dips in acid alcohol. Following further washing, sections were placed in a 2% sodium bicarbonate (Sigma, Dublin, Ireland) solution for 30 seconds then dehydrated through an alcohol gradient. Sections were cleared in Histoclear (Sigma, Dublin, Ireland) for 5 minutes then mouted in DPX (BDH, VWR International Ltd., Poole, England) and viewed under a light microscope (Leica DM LB2; Leica, Nussloch, Germany).
# It is a better model of the slow progression of typical human autosomal recessive RP than the acute light model as photoreceptor cells are lost over a period of weeks rather than days. Loss of photoreceptors in the rd10 mouse begins at approximately 2 weeks of age, with the peak of photoreceptor death occurring at postnatal day (P) 25.
# [6] = system: ganglion cells; experiment: NMDA-induced excitotoxicity, acute model of Glaucoma; type: in vivo, balb/c mice
# Procedure: In this model intravitreal injection of 40 mM NMDA results in the progressive loss of ganglion cells from the ganglion cell layer (GCL), accompanied by a thinning of the inner plexiform layer (IPL) over time.
# By 48 and 72 hours post excitotoxicity the eventual loss of cells of the ONL is evident.
# FIG. 13 is a histogram of the data from FIG. 12.
# as §2
# as §3, with “Hematoxylin staining: Eyes were fixed in 10% neutral buffered formalin overnight at 4° C., followed by cryoprotection in 25% sucrose overnight at 4° C. Frozen” for “Frozen”
# Intravitreal Injections: Adult balb/c mice were anaesthetised using an intraperitoneal injection of ketamine hydrochloride 35-50 mg/kg (Pharmacia, Corby, Northamptonshire, UK) and xylazine hydrochloride 5-10 mg/kg (Chanelle Pharmaceuticals, Loughrea, Co. Galway, Ireland), and animals were placed in the pronate position. […]
# [7] = Stability of BP derivatives; type: physicochemical
# [8] = 200 mg/kg 1 hour prior to 40 mM NMDA injection, 48 and 72 hours post insult
smiles,measurement,setting,value
"C#CC1(O)CC[C@H]2[C@@H]3CCC4=CC(=O)CC[C@@H]4[C@H]3CC[C@@]21CC (mixture of isomers) [norgestrel, reference compound]",Protection of photoreceptor cells from SNP induced apoptosis,[1],protected
COc1cc2c(cc1OC(C)=O)CCC(C)(C)O2 [BP1],"Lipophilicity (P), rank order",[2],BP1<BP2<BP3=BP5=BP6<BP4
COc1cc2c(cc1OC(=O)C(C)(C)C)CCC(C)(C)O2 [BP2],"Lipophilicity (P), rank order",[2],BP1<BP2<BP3=BP5=BP6<BP4
CCCCC(C)C(=O)Oc1cc2c(cc1OC)OC(C)(C)CC2 (centres unmarked) [BP3],Inhibition of apoptosis in retinal cells,[3],inhibiting apoptosis
same,Protection of photoreceptor cells from SNP induced apoptosis at 25 μM,[1]; FIGS. 5 and 6,effective
same,"Concentration at which BP3 is equally as effective, times lower than BP","[1]; SNP induced apoptosis, FIGS. 5 and 6",10 times
same,Protection of photoreceptor cells from SNP induced apoptosis,[1],protect photoreceptor cells from SNP induced apoptosis
same,Protection of photoreceptor cells from SNP induced apoptosis,[1]; listed as BP-3,inhibiting apoptosis; also recorded: better protection
same,Protection from light induced retinal damage (apoptosis of photoreceptors),[4],protects from the retinal damage observed
same,Protection from light induced retinal damage (apoptosis of photoreceptors),[4]; listed as BP-3,protected
same,"Protection from light induced cell death in the central retina (TUNEL positive cells, ONL)","[4]; at 24, 48 and 72 hours, 200 mg/kg, FIG. 8",approx 40%
same,Protection at 72 hours post light damage,[4]; second dose of 200 mg/kg at 24 hours post light damage,significant protection
same,Time to which protection extends,"[4]; single injection of 200 mg/kg, post light damage",48 h
same,Cone cells in the ONL (PNA staining),[5]; alternate days from P18 to P25,more cone cells
same,Rhodopsin positive cells (rods) in the ONL compared to vehicle,"[5]; alternate days from P18 to P25, immunofluorescent staining",more rhodopsin positive cells remain
same,Protection from photoreceptor cell death in the ONL,"[5]; injected daily with 200 mg/kg, P18 to P25, 200 mg/kg",protection from photoreceptor cell death in the ONL; also recorded: areas of the retina are protected
same,"Protection of retinal areas, alternate-day injection versus daily injection","[5]; injection on alternate days, all retinal areas",same level of protection as a daily injection regimen
same,Ganglion cell loss from the GCL,[6]; [8],significantly attenuates
same,IPL thinning,[6]; [8],significantly attenuates
same,"Protection from NMDA-induced cell death (TUNEL positive cells, all retinal layers)","[6]; 200 mg/kg I.P. 1 hour prior to NMDA injection, 4, 24, 48 and 72 hours",significantly protects retinal cells in all layers at all time points examined; also recorded: significant protection
same,"Lipophilicity (P), rank order",[2],BP1<BP2<BP3=BP5=BP6<BP4
same,Stability of the compound,[7],far more stable than BP4
COc1cc2c(cc1OC(=O)c1ccccc1)CCC(C)(C)O2 [BP5],"Lipophilicity (P), rank order",[2],BP1<BP2<BP3=BP5=BP6<BP4
COc1cc2c(cc1OC(=O)c1ccccc1F)CCC(C)(C)O2 [BP6],"Lipophilicity (P), rank order",[2],BP1<BP2<BP3=BP5=BP6<BP4
"COc1cc2c(cc1O)CCC(C)(C)O2 [BP, 3,4-dihydro-6-hydroxy-7-methoxy-2,2-dimethyl-1(2H)-benzopyran]",Protection of photoreceptor cells from SNP induced apoptosis at 25 μM,[1]; FIGS. 5 and 6,effective
same,Protection of photoreceptor cells from SNP induced apoptosis,[1],protect photoreceptor cells from SNP induced apoptosis
